Test results as given in patent US11512085B2, “Heteroaryl compound having drug activity” (SHANGHAI DUDE MEDICAL TECHNOLOGY CO., LTD, priority 2017, dated 2022).

Tests used:
[1] = target: Lck (Homo sapiens, UniProt P06239); assay: Btk selectivity over Lck (same kinase method, Btk replaced); format: biochemical; conditions: ratio of IC50 values
Procedure: (§1) Other kinases (e.g., inhibitory activity of Lck and LynA is determined by replacing the Btk with various kinases and performing operations the same as that in the above method).

[2] = target: LynA (Homo sapiens, UniProt P07948); assay: Btk selectivity over LynA (same kinase method, Btk replaced); format: biochemical; conditions: ratio of IC50 values
LynA, sequence (P07948 whole entry): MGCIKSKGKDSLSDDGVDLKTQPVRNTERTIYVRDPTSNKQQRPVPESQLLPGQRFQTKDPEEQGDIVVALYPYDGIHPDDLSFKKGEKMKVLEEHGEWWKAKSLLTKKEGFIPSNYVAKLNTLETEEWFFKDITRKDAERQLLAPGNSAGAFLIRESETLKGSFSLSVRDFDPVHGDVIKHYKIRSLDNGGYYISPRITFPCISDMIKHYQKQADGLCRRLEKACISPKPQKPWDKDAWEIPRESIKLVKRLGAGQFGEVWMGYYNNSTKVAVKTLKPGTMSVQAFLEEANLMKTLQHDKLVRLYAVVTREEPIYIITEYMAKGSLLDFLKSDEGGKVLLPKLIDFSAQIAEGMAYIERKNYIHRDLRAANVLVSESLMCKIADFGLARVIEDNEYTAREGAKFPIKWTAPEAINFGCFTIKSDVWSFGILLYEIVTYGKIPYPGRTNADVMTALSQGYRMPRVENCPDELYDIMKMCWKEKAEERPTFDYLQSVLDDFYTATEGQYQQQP
Procedure: as §1

[3] = Human liver microsome stability test; format: in vitro ADME; conditions: for Remaining (*NCF = 60 min): HLM 0.5, 60 min, no co-factor; for Remaining (T = 60 min): HLM 0.5, 60 min with NADPH regenerating system; for half-life at 1 µM / microsomal CLint at 1 µM / CLint scaled at 1 µM: human, liver microsomes, pH 7.4; for half-life at 1 µM: HLM 0.5 (0.5 mg protein/mL); for microsomal CLint at 1 µM / CLint scaled at 1 µM: HLM 0.5; for microsomal CLint at 1 µM: read-out: CLint(mic); for CLint scaled at 1 µM: scaled from CLint(mic)
Procedure: (§2) Preparation of Buffer Solution:
(§3) 1. 100 mM potassium phosphate buffer solution, pH of 7.4
(§4) Preparation of Test Compound Solution:
(§5) 1. A test compound solution (10 mM, 5 μL) was diluted with a methanol solution (495 μL), and a 100 μM solution was prepared;
(§6) 2. Preparation of a working solution: the above solution (50 μL) was diluted with the potassium phosphate buffer solution (450 μL, 100 mM) so as to obtain diluents (10 μM).
(§7) NADPH Regeneration System (Final Concentration 1 Unit/mL of Isocitrate Dehydrogenase):
(§8) 1. beta-NADP, supplier: sigma Cat. No. N0505
(§9) 3. isocitrate dehydrogenase, supplier: sigma Cat. No. 12002
(§10) Cold acetonitrile containing 100 ng/mL of tolbutamide and 100 ng/mL of labetalol serves as an internal standard
(§11) 1. a 10 μL/well of working solution was added into plates (T0, T5, T10, T20, T30, T60, NCF60) beyond the blank;
(§12) 2. a 80 μL/well of microsome solution was added, and incubation was performed at 37° C. for 10 min;
(§13) 3. a 10 μL of 100 mM phosphate buffer solution was added into each well of an NCF60 plate, the plate was placed in a warm bath at 37° C., and timing started;
(§14) 4. a 10 μL/well of NADPH regeneration system was added after preheating, and a reaction started;
(§15) 5. incubation was performed at 37° C., and timing started
(§16) 6. a 300 μL/well of stop solution was added (4° C., containing 100 ng/mL of tolbutamide and 100 ng/mL of labetalol) to end the reaction;
(§17) 7. the plate was shaken for 10 min;
(§18) 8. centrifugation was performed at 4° C. at a rotation speed of 4000 rpm; and
(§19) 9. sample LC/MS/MS detection was performed.
(§20) Data Analysis Use Equation of First Order Kinetics to Calculate t½ and Clint(Mic): […]
(§21) equation of first order kinetics: […]

[4] = Rat liver microsome stability test; format: in vitro ADME; conditions: for Remaining (*NCF = 60 min): RLM 0.5, 60 min, no co-factor; for Remaining (T = 60 min): RLM 0.5, 60 min with NADPH regenerating system; for half-life at 1 µM / microsomal CLint at 1 µM / CLint scaled at 1 µM: rat, liver microsomes, pH 7.4; for half-life at 1 µM: RLM 0.5 (0.5 mg protein/mL); for microsomal CLint at 1 µM / CLint scaled at 1 µM: RLM 0.5; for microsomal CLint at 1 µM: read-out: CLint(mic); for CLint scaled at 1 µM: scaled from CLint(mic)
Procedure: as §2, §3, §4, §5, §6, §7, §8, §9, §10, §11, §12, §13, §14, §15, §16, §17, §18, §19, §20, §21

[5] = target: Btk (Homo sapiens, UniProt Q06187); assay: Determination of Btk enzyme inhibitory activity; format: biochemical; conditions: 2 nM BTK
Btk, sequence (Q06187 whole entry): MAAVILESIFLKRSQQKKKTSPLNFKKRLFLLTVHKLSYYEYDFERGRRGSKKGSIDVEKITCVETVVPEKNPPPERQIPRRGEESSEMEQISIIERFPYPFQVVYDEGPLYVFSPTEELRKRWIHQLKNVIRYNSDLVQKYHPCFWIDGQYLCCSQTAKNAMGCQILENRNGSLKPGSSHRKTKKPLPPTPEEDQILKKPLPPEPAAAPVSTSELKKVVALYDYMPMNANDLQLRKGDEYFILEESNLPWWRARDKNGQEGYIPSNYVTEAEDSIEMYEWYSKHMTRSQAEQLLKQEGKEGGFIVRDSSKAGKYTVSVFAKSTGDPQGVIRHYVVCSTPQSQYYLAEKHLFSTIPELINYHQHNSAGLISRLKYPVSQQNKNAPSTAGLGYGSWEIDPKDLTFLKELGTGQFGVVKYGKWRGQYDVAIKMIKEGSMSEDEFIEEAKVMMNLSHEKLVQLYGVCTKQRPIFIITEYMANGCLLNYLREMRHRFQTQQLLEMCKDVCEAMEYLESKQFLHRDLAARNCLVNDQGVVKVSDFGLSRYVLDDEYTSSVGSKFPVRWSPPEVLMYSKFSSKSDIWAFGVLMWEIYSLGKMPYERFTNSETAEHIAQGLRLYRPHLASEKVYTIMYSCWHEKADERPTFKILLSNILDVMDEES
Procedure: Determination of Btk Enzyme Inhibitory Activity
Buffer solution: 50 mM Hepes pH 7.0, 0.1 mM Orthovanadate, 5 mM MgCl2, 0.01% of BSA;
1 mM TK-peptide, […], 50 nM SEB;
Pre-incubation for 15 minutes;
Reaction at 23° C. for 90 minutes;
Color Development Reaction:
Developing buffer solution: 50 mM Hepes pH8.0, 0.8 M KF, 20 mM EDTA, 0.01% BSA;
Reaction at 23° C. for 60 minutes;

[6] = People; FDA data; cited from earlier work

Lck, sequence (P06239 whole entry): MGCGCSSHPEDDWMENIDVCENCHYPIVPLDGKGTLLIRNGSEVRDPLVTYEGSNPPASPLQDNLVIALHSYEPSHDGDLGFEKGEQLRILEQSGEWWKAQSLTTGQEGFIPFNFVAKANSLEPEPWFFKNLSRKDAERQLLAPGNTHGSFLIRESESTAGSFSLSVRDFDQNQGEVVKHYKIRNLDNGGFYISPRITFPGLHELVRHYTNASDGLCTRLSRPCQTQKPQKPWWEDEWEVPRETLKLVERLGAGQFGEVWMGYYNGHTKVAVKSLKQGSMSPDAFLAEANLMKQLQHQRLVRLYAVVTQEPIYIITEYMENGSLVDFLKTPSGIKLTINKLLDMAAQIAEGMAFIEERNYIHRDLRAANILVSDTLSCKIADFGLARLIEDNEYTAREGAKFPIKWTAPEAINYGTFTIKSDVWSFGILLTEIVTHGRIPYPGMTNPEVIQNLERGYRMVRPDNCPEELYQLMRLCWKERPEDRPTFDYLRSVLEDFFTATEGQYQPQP

For `C=CC(=O)N(C)N1CCCC(n2nc(-c3ccc(Oc4ccccc4)cc3)c3c(N)ncnc32)C1` (stereo not shown) [Embodiment 8], the “Lck[IC50]/Btk[IC50]” value [1] was 139, the “LynA[IC50]/Btk[IC50]” value [2] was 62.5 and the “Remaining (*NCF = 60 min)” value [3] was 105.8%. For the same molecule, the “Remaining (T = 60 min)” value [3] was 0.0%, the half-life at 1 µM [3] was 3.7 min and the microsomal CLint at 1 µM [3] was 374 µL/min/mg. The CLint scaled at 1 µM [3] was 336 mL/min/kg, the “Remaining (*NCF = 60 min)” value [4] was 111.2% and the “Remaining (T = 60 min)” value [4] was 0.2%. The half-life at 1 µM [4] was 3.8 min, the microsomal CLint at 1 µM [4] was 366 µL/min/mg and the CLint scaled at 1 µM [4] was 658 mL/min/kg.
Work on `C=CC(=O)N(C)N1CCC[C@@H](n2nc(-c3ccc(Oc4ccccc4)cc3)c3c(N)ncnc32)C1` [Embodiment 8] yielded an IC50 [5] of 0.64 nM.
With `C=CC(=O)N1CCCC(n2nc(/C=C/c3ccccn3)c3c(N)ncnc32)C1` (stereo not shown) [Embodiment 13, 1-(3-(4-amino-3-(2-2-pyridyl)vinyl-1H-pyrazolo[3,4-D]pyrimidine-1-yl)-piperidyl)-2-propylene-1-one] the IC50 [5] was 0.46 nM, the “Lck[IC50]/Btk[IC50]” value [1] was 420 and the “LynA[IC50]/Btk[IC50]” value [2] was 507. For the same molecule, the “Remaining (*NCF = 60 min)” value [3] was 93.1%, the “Remaining (T = 60 min)” value [3] was 14.0% and the half-life at 1 µM [3] was 20.5 min. The microsomal CLint at 1 µM [3] was 67.6 µL/min/mg, the CLint scaled at 1 µM [3] was 60.8 mL/min/kg and the “Remaining (*NCF = 60 min)” value [4] was 94.7%. The “Remaining (T = 60 min)” value [4] was 5.0%, the half-life at 1 µM [4] was 13.7 min and the microsomal CLint at 1 µM [4] was 101 µL/min/mg. For the same molecule, the CLint scaled at 1 µM [4] was 182 mL/min/kg.
In the case of `C=CC(=O)N1CCC[C@@H](n2nc(/C=C/c3ccc(Cl)cc3)c3c(N)ncnc32)C1` [Embodiment 14, 1-(3-(4-amino-3-(4-chlorophenylvinyl)-1H-pyrazolo[3,4-D]pyrimidine-1-yl)-piperidyl)-2-propylene-1-one], the IC50 [5] is reported as 5.82 nM.
With `C=CC(=O)N1CCC[C@@H](n2nc(/C=C/c3cccc(Cl)c3)c3c(N)ncnc32)C1` [Embodiment 15, 1-(3-(4-amino-3-(3-chlorophenylvinyl)-1H-pyrazolo[3,4-D]pyrimidine-1-yl)-piperidyl)-2-propylene-1-one] the IC50 [5] was 6.9 nM.
`C=CC(=O)N1CCCC(n2nc(/C=C/c3ccccc3Cl)c3c(N)ncnc32)C1` (stereo not shown) [Embodiment 16, 1-(3-(4-amino-3-(2-chlorophenylvinyl)-1H-pyrazolo[3,4-D]pyrimidine-1-yl)-piperidyl)-2-propylene-1-one] showed an IC50 [5] of 16.7 nM.
Work on `C=CC(=O)N1CCC[C@@H](n2nc(-c3ccc(-c4noc(C)n4)cc3)c3c(N)ncnc32)C1` [Embodiment 22, 1-(3-(4-amino-3-(4-(5-methyl-1,2,4-oxadiazole-3-yl)phenyl)-1H-pyrazolo[3,4-D]pyrimidine-1-yl)-1-piperidyl)-2-propylene-1-one] yielded an IC50 [5] of 145 nM.
With `C=CC(=O)N1CCC[C@@H](n2nc(-c3ccc(-c4noc(CCCCl)n4)cc3)c3c(N)ncnc32)C1` [Embodiment 24, 1-(3-(4-amino-3-(4-(5-(3-chloropropyl)-1,2,4-oxadiazole-3-yl)phenyl)-1H-pyrazolo[3,4-D]pyrimidine-1-yl)-1-piperidyl)-2-propylene-1-one] the IC50 [5] was 78 nM.
Work on `C=CC(=O)NN1CCCC(n2c(=O)n(-c3ccc(Oc4ccccc4)cc3)c3c(N)ncnc32)C1` (stereo not shown) [Embodiment 29] yielded an IC50 [5] greater than 1000 nM.
`C=CC(=O)N(C)N1CCC[C@@H](n2c(=O)n(-c3ccc(Oc4ccccc4)cc3)c3c(N)ncnc32)C1` [Embodiment 30] showed an IC50 [5] of 76.8 nM.
For `C=CC(=O)N1CCCC(n2c(=O)n(-c3ccc(-c4noc(C)n4)cc3)c3c(N)ncnc32)C1` (stereo not shown) [Embodiment 34, 9-(1-allylpropionylpiperidine-3-yl)-6-amino-7-(4-(5-methyl-1,2,4-oxadiazole-3-yl)phenyl)-7,9-dihydro-8H-purine-8-one], the IC50 [5] was 209 nM.
Work on `C=CC(=O)N1CCCC(n2c(=O)n(-c3ccc(-c4noc(C=C)n4)cc3)c3c(N)ncnc32)C1` (stereo not shown) [Embodiment 35, 9-(1-allylpropionylpiperidine-3-yl)-6-amino-7-(4-(5-vinyl-1,2,4-oxadiazole-3-yl)phenyl)-7,9-dihydro-8H-purine-8-one] yielded an IC50 [5] of 176 nM.
`C=CC(=O)N1CCC[C@@H](n2c(=O)n(-c3ccc(-c4noc(CCCCl)n4)cc3)c3c(N)ncnc32)C1` [Embodiment 36, 9-(1-allylpropionylpiperidine-3-yl)-6-amino-7-(4-(5-(3-chloropropyl)-1,2,4-oxadiazole-3-yl)phenyl)-7,9-dihydro-8H-purine-8-one] gave an IC50 [5] greater than 1000 nM.
`C=CC(=O)NN1CCC[C@@H](n2c(=O)n(-c3ccc(C(=O)Nc4ccccn4)cc3)c3c(N)ncnc32)C1` [Embodiment 40, 4-(9-(1-acrylamidepiperidine-3-yl)-6-amino-8-oxo-8,9-dihydro-7H-purine-7-yl)-N-(pyridin-2-yl)benzamide] gave an IC50 [5] of 23 nM.
In the case of `C=CC(=O)NN1CCC[C@@H](n2nc(-c3ccc(Oc4ccccc4F)cc3)c3c(N)ncnc32)C1` [Embodiment 42], the IC50 [5] is reported as 0.9 nM.
`C=CC(=O)NN1CCCC(c2nc(-c3ccc(Oc4ccccc4)cc3)c3c(N)nccn23)C1` (stereo not shown) [Embodiment 51, N-(3-(8-amino-1-(4-phenoxyphenyl)imidazo[1,5-a]pyrazine-3-yl)-1-piperidyl) acrylamide] showed an IC50 [5] of 5.1 nM.
In the case of `C=CC(=O)N1CCC[C@@H](n2nc(-c3ccc(Oc4ccccc4)cc3)c3c(N)ncnc32)C1` [Ibrutinib], the bioavailability [6] is given as 2.9%.
